Assay results taken from ChEMBL document CHEMBL1201862, “PubChem BioAssay data set” (2004).
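In this assay, cells in 96-well plates receive the compound at five concentrations for 48 hours. Endpoints are linearly interpolated between the surrounding concentrations. The concentration for 50% growth inhibition is given as GI50.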 Activity calls are given as the source filed them. No stated cut-off is given here; in the data, active = GI50 up to about 1.1 µM and inactive = higher.

What was measured:
Test in all cases: NCI anticancer screen, dose series, 48 h
EKVX = test system: EKVX
HCC 2998 = test system: HCC 2998
MDA-MB-231 = test system: MDA-MB-231
UACC-62 = test system: UACC-62
RXF 393 = test system: RXF 393
MDA-N = test system: MDA-N
IGROV-1 = test system: IGROV-1
A549 = test system: A549
SNB-75 = test system: SNB-75
MCF7 = test system: MCF7
COLO 205 = test system: COLO 205
SW-620 = test system: SW-620
ACHN = test system: ACHN
SN12C = test system: SN12C
SK-MEL-28 = test system: SK-MEL-28
M14 = test system: M14
RPMI-8226 = test system: RPMI-8226
OVCAR-3 = test system: OVCAR-3
SF-539 = test system: SF-539
SK-MEL-5 = test system: SK-MEL-5

## O=C(c1ccsc1)c1cc2c(s1)C(=O)c1ccsc1C2=O
EKVX
  GI50: 0.2 µM (active)
HCC 2998
  GI50: 0.537 µM (active)
MDA-MB-231
  GI50: 0.0755 µM (active)
UACC-62
  GI50: 0.194 µM (active)
RXF 393
  GI50: 0.178 µM (active)
MDA-N
  GI50: 0.0237 µM (active)
IGROV-1
  GI50: 0.204 µM (active)
A549
  GI50: 0.612 µM (active)
SNB-75
  GI50: 0.171 µM (active)
MCF7
  GI50: 0.182 µM (active)
COLO 205
  GI50: 1.51 µM (inactive)
SW-620
  GI50: 0.17 µM (active)
ACHN
  GI50: 0.0959 µM (active)
SN12C
  GI50: 0.0635 µM (active)
SK-MEL-28
  GI50: 0.142 µM (active)
M14
  GI50: 0.116 µM (active)
RPMI-8226
  GI50: 0.136 µM (active)
OVCAR-3
  GI50: 0.0624 µM (active)
SF-539
  GI50: 0.0671 µM (active)
SK-MEL-5
  GI50: 0.0279 µM (active)

## Sc1ncc(-c2cncc(-c3cnc(S)nc3)n2)cn1
EKVX
  GI50: > 100 µM (inactive)
HCC 2998
  GI50: > 100 µM (inactive)
MDA-MB-231
  GI50: > 100 µM (inactive)
UACC-62
  GI50: > 100 µM (inactive)
RXF 393
  GI50: > 100 µM (inactive)
MDA-N
  GI50: > 100 µM (inactive)
IGROV-1
  GI50: > 100 µM (inactive)
A549
  GI50: > 100 µM (inactive)
SNB-75
  GI50: > 100 µM (inactive)
MCF7
  GI50: > 100 µM (inactive)
COLO 205
  GI50: > 100 µM (inactive)
SW-620
  GI50: > 100 µM (inactive)
ACHN
  GI50: > 100 µM (inactive)
SN12C
  GI50: > 100 µM (inactive)
SK-MEL-28
  GI50: > 100 µM (inactive)
M14
  GI50: > 100 µM (inactive)
RPMI-8226
  GI50: > 100 µM (inactive)
OVCAR-3
  GI50: > 100 µM (inactive)
SF-539
  GI50: > 100 µM (inactive)
SK-MEL-5
  GI50: > 100 µM (inactive)

## C=CC(=O)N1C/C(=C\c2ccc(OC)cc2)C(=O)/C(=C/c2ccc(OC)cc2)C1
EKVX
  GI50: 3.35 µM (inactive)
HCC 2998
  GI50: 1.5 µM (inactive)
MDA-MB-231
  GI50: 3.07 µM (inactive)
UACC-62
  GI50: 1.94 µM (inactive)
RXF 393
  GI50: 1.61 µM (inactive)
MDA-N
  GI50: 1.62 µM (inactive)
IGROV-1
  GI50: 2.35 µM (inactive)
A549
  GI50: 2.47 µM (inactive)
SNB-75
  GI50: 6.05 µM (inactive)
MCF7
  GI50: 0.628 µM (active)
COLO 205
  GI50: 2.99 µM (inactive)
SW-620
  GI50: 1.46 µM (inactive)
ACHN
  GI50: 1.78 µM (inactive)
SN12C
  GI50: 2.49 µM (inactive)
SK-MEL-28
  GI50: 2.81 µM (inactive)
M14
  GI50: 2.15 µM (inactive)
RPMI-8226
  GI50: 0.247 µM (active)
OVCAR-3
  GI50: 1.97 µM (inactive)
SF-539
  GI50: 1.71 µM (inactive)
SK-MEL-5
  GI50: 2.61 µM (inactive)

## Oc1ccnc(SCc2ccc(Cl)cc2)n1
EKVX
  GI50: > 100 µM (inactive)
HCC 2998
  GI50: 13.4 µM (inactive)
MDA-MB-231
  GI50: > 100 µM (inactive)
UACC-62
  GI50: > 100 µM (inactive)
RXF 393
  GI50: > 100 µM (inactive)
MDA-N
  GI50: > 100 µM (inactive)
IGROV-1
  GI50: > 100 µM (inactive)
A549
  GI50: > 100 µM (inactive)
SNB-75
  GI50: > 100 µM (inactive)
MCF7
  GI50: > 100 µM (inactive)
COLO 205
  GI50: > 100 µM (inactive)
SW-620
  GI50: > 100 µM (inactive)
ACHN
  GI50: > 100 µM (inactive)
SN12C
  GI50: > 100 µM (inactive)
SK-MEL-28
  GI50: > 100 µM (inactive)
M14
  GI50: > 100 µM (inactive)
RPMI-8226
  GI50: 56.1 µM (inactive)
OVCAR-3
  GI50: 57.3 µM (inactive)
SF-539
  GI50: > 100 µM (inactive)
SK-MEL-5
  GI50: > 100 µM (inactive)

## CC1(/C=C/CCSc2ccccc2)CC(=O)C2CC1C2(C)C (stereo not given)
EKVX
  GI50: 22.1 µM (inactive)
HCC 2998
  GI50: 12.5 µM (inactive)
MDA-MB-231
  GI50: 37.4 µM (inactive)
UACC-62
  GI50: 8.04 µM (inactive)
RXF 393
  GI50: 29.3 µM (inactive)
MDA-N
  GI50: 26.9 µM (inactive)
IGROV-1
  GI50: 17.8 µM (inactive)
A549
  GI50: 14.8 µM (inactive)
SNB-75
  GI50: 11.2 µM (inactive)
MCF7
  GI50: 22.6 µM (inactive)
COLO 205
  GI50: 30 µM (inactive)
SW-620
  GI50: 32.5 µM (inactive)
ACHN
  GI50: 19 µM (inactive)
SN12C
  GI50: 19.1 µM (inactive)
SK-MEL-28
  GI50: 25.1 µM (inactive)
M14
  GI50: 23.8 µM (inactive)
RPMI-8226
  GI50: 3.79 µM (inactive)
OVCAR-3
  GI50: 23.1 µM (inactive)
SF-539
  GI50: 7.96 µM (inactive)
SK-MEL-5
  GI50: 8.71 µM (inactive)
